Results published in patent US20040053355A1, “Modular approach to on-line synthesis, drug discovery and biochemical transformations using immobilized enzyme reactors” (priority 2000, published 2004).

Key:
[1] = target: T1, dopamine beta-hydroxylase immobilized onto Glut-P (DBH-Glut-P) (Bos taurus, UniProt P15101); assay: DBH immobilized onto Glut-P stationary phase (DBH-Glut-P, DBH-Glut-P-SP), batch assay; assay type: biochemical, bovine; details: hydrochloride
T1 construct: purchased
T1 sequence (P15101 1-610): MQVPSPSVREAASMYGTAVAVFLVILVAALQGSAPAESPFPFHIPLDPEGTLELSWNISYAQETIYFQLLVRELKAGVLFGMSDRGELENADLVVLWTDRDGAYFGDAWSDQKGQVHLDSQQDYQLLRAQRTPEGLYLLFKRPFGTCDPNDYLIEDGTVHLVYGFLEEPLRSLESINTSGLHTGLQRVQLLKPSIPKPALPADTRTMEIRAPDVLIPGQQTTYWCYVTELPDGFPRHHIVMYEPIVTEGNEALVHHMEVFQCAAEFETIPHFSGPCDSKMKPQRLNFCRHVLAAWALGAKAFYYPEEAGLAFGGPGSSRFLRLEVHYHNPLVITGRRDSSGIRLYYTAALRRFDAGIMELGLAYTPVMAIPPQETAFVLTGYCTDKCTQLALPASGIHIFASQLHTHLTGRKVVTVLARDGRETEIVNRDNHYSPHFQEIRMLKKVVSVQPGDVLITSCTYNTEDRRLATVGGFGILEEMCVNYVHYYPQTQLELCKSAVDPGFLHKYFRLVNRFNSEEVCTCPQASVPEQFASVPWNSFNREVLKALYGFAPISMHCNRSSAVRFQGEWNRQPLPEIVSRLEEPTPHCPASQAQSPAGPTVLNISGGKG
Method: The enzyme was assayed as follows: four different solutions were prepared A, B, C and D (final concentration). (A) 500 μL of enzyme solution (10 μg/ml); B: 275 μL sodium acetate buffer (10 mM, pH 5.5), 50 μL cupric sulphate (5 μM); C: 25 μL catalase (5 μg/ml), 50 μL ascorbic acid (10 mM), 50 μl sodium fumarate (10 mM); D: 50 μl substrate (5 mM). Solution B was added to solution A, the resulting solution was mixed for 1 min. Solution C was added and the resulting solution was mixed for an additional minute. The reaction was started with the addition of the substrate (D), after which the reaction solution was incubated for 5 min at 37° C. in a shaking bath. […]
The packing material was washed three times with sodium acetate buffer (0.1M, pH 6). […] The enzyme solution (8-10 μg in 1 ml sodium acetate buffer] was added to the packing material, the mixture was vortexed for 2 min and then placed on a shaker/rotator for 6 h at ambient temperature. At the end of 6 h, the suspension was centrifuged, the supernatant decanted and the packing material washed three additional times with the buffer. The amount of residual enzyme was determined utilizing the same procedure as that carried out for the enzyme immobilized onto IAM.

[2] = target: T2, immobilized DBH (dopamine β-hydroxylase) (Bos taurus, UniProt P15101); assay: Captopril inhibition of immobilized DBH, batch assay (support not specified); assay type: biochemical, bovine
T2 construct: purchased
T2 sequence (P15101 1-610): T1 sequence (P15101 1-610)
Method: (§1) The enzyme was assayed as follows: four different solutions were prepared A, B, C and D (final concentration). (A) 500 μL of enzyme solution (10 μg/ml); B: 275 μL sodium acetate buffer (10 mM, pH 5.5), 50 μL cupric sulphate (5 μM); C: 25 μL catalase (5 μg/ml), 50 μL ascorbic acid (10 mM), 50 μl sodium fumarate (10 mM); D: 50 μl substrate (5 mM). Solution B was added to solution A, the resulting solution was mixed for 1 min. Solution C was added and the resulting solution was mixed for an additional minute. The reaction was started with the addition of the substrate (D), after which the reaction solution was incubated for 5 min at 37° C. in a shaking bath. The reaction was stopped by the addition of 100 μl of cold hexane, the resulting mixture was centrifuged at 3000×g for 10 min and the supernatant transferred to the pre-conditioned phenylboronic acid cartridges in order to extract the product formed and the remaining substrate. Extracted samples were directly injected onto the HPLC under either chiral or achiral conditions.
The effect of captopril on immobilized DBH kinetics is represented in the form of a reciprocal velocity plot versus the reciprocal of the concentration of tyramine. […] The slope and intercept replots were linear (r>0.995).

[3] = target: T3, DBH-Glut-P IMER (immobilized dopamine beta-hydroxylase) (Bos taurus, UniProt P15101); assay: On-line DBH-Glut-P immobilized enzyme reactor (DBH-Glut-P IMER) HPLC system; assay type: biochemical, bovine
T3 construct: purchased
T3 sequence (P15101 1-610): T1 sequence (P15101 1-610)
Description: DBH immobilized on the IAM or Glut-P stationary phase was packed into a 1 cm×10 mm guard (Regis Technologies). The guard was placed in a holder and the resulting column connected to a chromatographic system. THE DBH-IAM-IMER and the DBH-Glut-P-IMER was washed with sodium acetate buffer [0.1M, pH 5.5] and sodium acetate buffer [0.1M, pH 6.0], respectively. The eluent from both IMERs was collected in order to determine if any of the DBH was being washed off the columns. The Biorad assay was utilized to measure the amount of non-immobilized enzyme. When the columns were not in use they were washed with sodium acetate buffer at the respective pHs and stored at 4° C.
Pumps 2 and 3 on system 2 and 3 were stopped. 100 μl of a substrate/cofactor mixture is loaded into the injector (i) and the valve is switched to the inject position at the same time the witching valve (SV) is switched such that substrate/product are eluted from the DBH-IMERs and concentrated onto the PBA column of system 2.The second pump was started and mobile phase A was pumped through the PBA column at a flow rate of 0.1 ml/min for 30 sec in order to elute, ascorbic acid and any other by-products produced from the reaction. The pump was then switched to mobile phase B with a flow rate of 0.1 ml/min for 2 min and simultaneously SV1 was switched such that unreacted substrate and product formed were concentrated on the analytical columns of System 3. When the specific contact time elapses the SV2 is switched back to the original position and the pump 3 is started.
The enzymatic activity on the DBH-Glut-P was determined by quantification of the amount of product formed with a given substrate. The temperature of the IMER unless otherwise stated was kept at 37° C. with a column heater. Stock solutions of tyramine were prepared in water. […] The kinetic parameters were determined using standard Michaelis-Menten approach. […] The rates of reaction (Vmax) were calculated using […]mol/mg/min. Results are expressed as mean±standard error of the mean (SEM). […]

[4] = target: T4, dopamine beta-hydroxylase (Homo sapiens, UniProt P09172); details: 140 μM captopril; Cu2+ as CuSO4; Palatini et al., 1989; cited from earlier work
T4 sequence (P09172 1-617): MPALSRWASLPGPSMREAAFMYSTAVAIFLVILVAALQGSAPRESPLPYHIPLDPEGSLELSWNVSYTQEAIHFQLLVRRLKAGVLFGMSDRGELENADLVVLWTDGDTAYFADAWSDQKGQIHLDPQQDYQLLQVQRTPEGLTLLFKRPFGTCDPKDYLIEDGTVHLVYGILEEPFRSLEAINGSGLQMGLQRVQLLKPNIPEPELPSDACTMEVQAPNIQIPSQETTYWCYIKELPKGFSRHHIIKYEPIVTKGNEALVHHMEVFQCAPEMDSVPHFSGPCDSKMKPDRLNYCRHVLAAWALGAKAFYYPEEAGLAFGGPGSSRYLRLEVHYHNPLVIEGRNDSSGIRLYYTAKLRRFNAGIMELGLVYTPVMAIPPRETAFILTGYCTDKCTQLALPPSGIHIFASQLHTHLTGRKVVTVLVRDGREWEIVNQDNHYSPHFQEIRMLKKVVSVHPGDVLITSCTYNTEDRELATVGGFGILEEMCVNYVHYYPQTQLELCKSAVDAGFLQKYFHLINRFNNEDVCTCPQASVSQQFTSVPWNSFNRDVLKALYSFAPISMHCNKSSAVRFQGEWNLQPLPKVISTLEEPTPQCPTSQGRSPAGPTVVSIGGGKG

[5] = target: T5, dopamine beta-hydroxylase (DBH), non-immobilized (Bos taurus, UniProt P15101); assay: Non-immobilized DBH activity assay, batch incubation with HPLC-fluorescence analysis; assay type: biochemical, bovine
T5 construct: purchased
T5 sequence (P15101 1-610): T1 sequence (P15101 1-610)
Method: The solutes were quantitated using fluorescence detection with excitation at λ=265 nm and no cut-off filter for emission. A flow rate of 1 ml/min and ambient temperature were used throughout the study.
Enzymatic conversions utilizing DBH require cupric sulphate, catalase, ascorbic acid and sodium fumarate. An off-line extraction method utilizing solid phase extraction cartridges containing a phenylboronic acid stationary phase was developed. The procedure consisted of the following: 1-ml cartridges were conditioned with 2 ml of methanol followed by 2 ml of sodium phosphate buffer (0.1M, pH 8.4). One ml of reaction mixture was added, the cartridge was then washed with 1 ml sodium phosphate buffer (0.1M, pH 8.4) and the substrate and product were eluted using 1 ml of 0.1N HCl. The eluate was directly injected onto the HPLC system.
as §1

SMILES	Vmax [1]	cupric sulphate concentration achieving reversal of the inhibition ([2]; enzyme form not stated)	type of inhibition with respect to tyramine (reciprocal velocity plot) ([2]; immobilized DBH, tyramine as varied substrate)	inhibition of DBH mediated formation of octopamine from tyramine ([2]; immobilized enzyme, concentrations as low as 150 μM)	concentration as low as which the IMER is inhibited ([3]; DBH-Glut-P IMER)	IC50 ([3]; on-line injection of substrate/cofactor/inhibitor mixtures, read-out: IC50 DBH-Glut-P IMER)	Cu^2+ concentration giving reversal of the inhibition [4]	inhibition of DBH mediated formation of octopamine from tyramine ([5]; non-immobilized enzyme, concentrations as low as 150 μM)	IC50 ([5]; read-out: IC50 DBH (Non-immobilized))
Cl.NCCc1ccc(O)cc1 [Tyramine, tyramine hydrochloride]	0.112^− μmol/mg/min								
C[C@H](CS)C(=O)N1CCC[C@H]1C(=O)O [Captopril, captopril]		2.5 µM	noncompetitive inhibition	approximately 50%	50 µM	120 µM	1.5 µM	approximately 50%	150 µM
